# “And” between values parts separate entries of the source, which are not always exact repeats. Equal entries are not always repeated. Structures can show the parent of a compound that is named as a salt.
# How the values were obtained:
# C. albicans H29 = assay: agar dilution method, C. albicans H29; type: cell-based, Candida albicans
# C. albicans 3152 = assay: agar dilution method, C. albicans 3152; type: cell-based, Candida albicans
# C. albicans B4 = assay: agar dilution method, C. albicans B4; type: cell-based, Candida albicans
# Candida albicans = assay: agar dilution method, synergism with sterol biosynthesis inhibitors; type: cell-based; settings: in combination with ketoconazole or terbinafine; synergistic when FIC <0.5
# C. albicans 3153 = assay: agar dilution method, C. albicans 3153; type: cell-based, Candida albicans
# [1] = acute toxicity, single oral administration to mice; settings: mouse, in vivo
# Experimental: The IC50 values were determined graphically and were given in μg of test substance per mL. Table I hereinafter contains IC50 values determined in the above test for representative members of the class of compound defined by formula I as well as concerning the acute toxicity in the case of single oral administration to mice (LD50 in mg/kg).
# [2] = biological target: T1, 2,3-epoxysqualene-lanosterol cyclase (Candida albicans, UniProt Q04782); assay: inhibition of 2,3-epoxysqualene-lanosterol cyclase from Candida albicans (cell-free extract, 14C-squalene epoxide); type: biochemical
# T1 construct: there was obtained a cell-free extract (CFE) as the supernatant; endogenous in cells; host or cells: Candida albicans culture, protoplasts ruptured, cell-free extract (10000 g supernatant)
# T1 sequence (Q04782 whole entry): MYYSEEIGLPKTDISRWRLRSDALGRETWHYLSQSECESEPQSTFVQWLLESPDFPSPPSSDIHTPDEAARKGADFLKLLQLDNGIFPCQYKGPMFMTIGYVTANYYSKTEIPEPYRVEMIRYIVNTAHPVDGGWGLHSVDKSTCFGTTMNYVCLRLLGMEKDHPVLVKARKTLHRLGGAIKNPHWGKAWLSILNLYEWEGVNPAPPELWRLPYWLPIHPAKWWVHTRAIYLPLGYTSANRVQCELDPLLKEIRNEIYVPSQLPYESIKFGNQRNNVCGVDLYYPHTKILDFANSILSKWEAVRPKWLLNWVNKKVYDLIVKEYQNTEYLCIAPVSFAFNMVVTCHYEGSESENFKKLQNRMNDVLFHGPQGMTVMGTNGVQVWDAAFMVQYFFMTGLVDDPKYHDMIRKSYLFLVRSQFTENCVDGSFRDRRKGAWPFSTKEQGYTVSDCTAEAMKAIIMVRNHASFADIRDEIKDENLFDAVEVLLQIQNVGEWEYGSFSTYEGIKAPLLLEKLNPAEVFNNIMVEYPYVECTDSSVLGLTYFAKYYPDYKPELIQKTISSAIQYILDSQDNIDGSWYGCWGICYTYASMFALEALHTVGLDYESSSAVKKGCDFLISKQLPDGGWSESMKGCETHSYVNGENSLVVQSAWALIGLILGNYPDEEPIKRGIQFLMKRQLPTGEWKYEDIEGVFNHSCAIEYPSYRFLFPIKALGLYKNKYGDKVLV
# C. albicans B5 = assay: agar dilution method, C. albicans B5; type: cell-based, Candida albicans
# C. albicans H12 = assay: agar dilution method, C. albicans H12; type: cell-based, Candida albicans
# [3] = in combination with ketoconazole, hydrochloride
# [4] = in combination with terbinafine
# [5] = in combination with terbinafine, synergistic when FIC <0.5
# [6] = in combination with ketoconazole, synergistic when FIC <0.5, hydrochloride
structure (smiles),measurement,setting,value
"C=CCN(C)Cc1ccc(-c2ccc(C(=O)c3ccccc3)cc2)cc1 [Compound 14, 4'-[(allylmethylamino)methyl-4-biphenylylphenyl ketone hydrochloride]",MIC,"C. albicans H29; Candida albicans, H29, 48 h, alone, 37° C., 2 days",1 µg/mL
same,MIC of compound in combination,C. albicans H29; [3],0.06 µg/mL and 0.12 µg/mL
same,MIC of compound in combination,C. albicans H29; [4],0.25 µg/mL
same,FIC,C. albicans H29; [5],0.375
same,MIC,"C. albicans 3152; Candida albicans, 48 h, alone, 37° C., 2 days",1 µg/mL
same,MIC of compound in combination,C. albicans 3152; [3],0.06 µg/mL and 0.12 µg/mL
same,FIC,C. albicans 3152; [6],0.187 and 0.156
same,MIC,"C. albicans B4; Candida albicans, B4, 48 h, alone, 37° C., 2 days",2 µg/mL
same,MIC of compound in combination,C. albicans B4; [3],0.12 µg/mL and 0.06 µg/mL
same,FIC,C. albicans B4; [6],0.078 and 0.040
same,MIC of compound in combination,C. albicans B4; [4],1 µg/mL
same,FIC,C. albicans B4; [5],0.531
same,synergistic activity,Candida albicans,confirm the synergistic activity
same,MIC,"C. albicans 3153; Candida albicans, 3153, 48 h, alone, 37° C., 2 days",1 µg/mL
same,MIC of compound in combination,C. albicans 3153; [4],0.25 µg/mL
same,FIC,"C. albicans 3153; in combination with terbinafine, synergistic when FIC <0.5, hydrochloride",0.281 and 0.561
same,LD50,[1],> 4000 mg/kg
same,IC50,[2],52.7 nM
same,MIC,"C. albicans B5; Candida albicans, B5, 48 h, alone, 37° C., 2 days",1 µg/mL
same,MIC of compound in combination,C. albicans B5; [3],0.06 µg/mL and 0.12 µg/mL
same,FIC,C. albicans B5; [6],0.125 and 0.25
same,MIC of compound in combination,C. albicans B5; [4],0.25 µg/mL
same,FIC,C. albicans B5; [5],0.375
same,MIC,"C. albicans H12; Candida albicans, H12, 48 h, alone, 37° C., 2 days",1 µg/mL
same,MIC of compound in combination,C. albicans H12; [3],0.12 µg/mL and 0.06 µg/mL
same,FIC,C. albicans H12; [6],0.133 and 0.125
same,MIC of compound in combination,C. albicans H12; [4],0.5 µg/mL
same,FIC,C. albicans H12; [5],0.516

# Reference: patent US5239084A, “Substituted aminoalkyl biphenyl compounds” (Hoffmann-La Roche Inc., priority 1990, dated 1993)
